Test results reported in patent US20120107398A1, “PHARMACEUTICAL COMPOSITIONS” (BOEHRINGER INGELHEIM INTERNATIONAL GMBH, priority 2010, published 2012).
Where a name gives a salt, the structure may show the parent alone.

Assay: Solubility of pioglitazone hydrochloride
Assay type: physicochemical
Method: For pioglitazone hydrochloride the intrinsic dissolution rates in aqueous media are only above 1000 μg/cm^2/min at pH 1, whereas for less acidic solutions (e.g. pH 2) the intrinsic dissolution rates are below 100 μg/cm^2/min. Therefore, the intrinsic dissolution rate of pioglitazone hydrochloride may be rate limiting for dissolution/absorption of the composition and pose an additional risk for providing similar dissolution profiles of pioglitazone hydrochloride in the composition to the original mono tablets (e.g. Actos) or combination market tablets (e.g. Duetact, Competact) and/or for matching bioequivalence with the original mono or combination market tablets.

With CCc1ccc(CCOc2ccc(CC3SC(=O)NC3=O)cc2)nc1 (stereo not drawn) [pioglitazone hydrochloride] the “solubility in strongly acidic media” value (strongly acidic media) was “slightly better solubility”, the solubility in water (water) was “practically insoluble” and the “solubility in weak acidic and neutral to basic media” value (weak acidic and neutral to basic media) was “very poor solubility”.
